Measured values reported in patent US10189796B2, “[4-(1,3,3-trimethyl-2-oxo-3,4-dihydro-1H-quinoxalin-7-yl)phenoxy]ethyloxy compound or salt thereof” (SANTEN PHARMACEUTICAL CO., LTD., priority 2015, dated 2019).

Experiments:
Recombinant human GR = Recombinant human GR (Homo sapiens (Human), UniProt P04150); assay: GR competitive binding assay by fluorescence polarization; conditions: 20 μM test compound solution, 10 μL/well; 2 hours; DEX positive control; read-out: GR binding rate (%)
Summary of the method: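 Fluorescence polarization competition between test compound and Fluormone GS1 fluorescent glucocorticoid ligand for recombinant human GR. Buffer 10 mM potassium phosphate pH 7.4, 20 mM Na2MoO4, 0.1 mM EDTA, 5 mM DTT, 2% DMSO. 2 h dark incubation at room temperature; binding ratio (%) scaled between buffer-only and DEX controls.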

[1] = tested on: IL-2 production in normal human CD4+T cell; assay: IL-2 production inhibitory action evaluation test (anti-CD3/CD28 antibody stimulation, ELISA); format: cell-based; conditions: anti-CD3/CD28, 24 hours, read-out: IL-2 production inhibitory ratio (% of 1 μM)
Experimental: In order to evaluate an action of the present compound as a GR agonist, IL-2 and IL-4 production inhibitory actions in a normal human CD4^+T cell after stimulation by an anti-CD3/CD28 antibody were investigated. For the measurement of the IL-2 and IL-4 production amounts, the ELISA method (manufactured by R&D Systems, Cat No. D2050, HS400) was used, and a procedure was carried out according to the protocol attached thereto. Hereinafter, the specific method will be described.
Dynabeads (Registered Trademark) Human T-Activator CD3/CD28 (4×10^7 beads/mL) (Dynabeads) was used, and prepared according to the protocol attached thereto.
After the test compound was dissolved in dimethylsulfoxide, the solution was diluted with an RPMI medium to prepare 400 μM of a test compound solution. The solution was diluted with a 4% dimethylsulfoxide-containing RPMI medium to prepare 40 μM of a test compound solution.
Used cells: normal peripheral blood human CD4^+T cell (human CD4^+T cell) (Lonza)
• 1) Frozen human CD4^+T cells were thawed in a warm water bath at 37° C., and added to an RPMI medium (RPMI 1640 containing 10% FBS, 100 U/mL of Penicillin, and […] of Streptomycin). • 2) The above suspension was recovered and centrifuged at 900 rpm for 10 minutes to give a cell sediment. • 3) The cell sediment was suspended in an RPMI medium and the operation of 2) was carried out. • 4) The cell sediment was adjusted to 4×10^5 cells/mL with an RPMI medium. • 5) The above suspension was cultured in a CO2 incubator (temperature: 37° C., CO2 concentration: 5%) for 1 hour or longer. (Test Method and Measurement Method) • 1) The cultured human CD4^+T cells were recovered and the cells were seeded in 96-well flat bottom culture plates at each 8.0×10^4 cells/0.2 mL/well. • 2) The test compound solution was added with each 5 μL/well. • 3) The prepared Dynabeads were added with each 2 μL/well. • 4) The sample in which 4% dimethylsulfoxide-containing RPMI medium was added with each 5 μL/well in place of each test compound solution, and the RPMI medium was added with each 2 μL/well in place of the Dynabeads was made a negative control. • 5) The sample in which 4% dimethylsulfoxide-containing RPMI medium was added with each 5 μL/well in place of each test compound solution was made a positive control. • 6) After completion of 24 hours cultivation, the supernatant was recovered and the amounts of IL-2 and IL-4 released in the supernatant was measured by using an ELISA Kit. • 7) The IL-2 and IL-4 production inhibitory ratios were calculated according to the following calculation formula. (Calculation of IL-2 and IL-4 Production Inhibitory Ratios)
The IL-2 and IL-4 production inhibitory ratios (%) were calculated by the following formula, respectively. IL-2 or IL-4 production inhibitory ratio (%)=100×{1−(IL-2 or IL-4 production amounts of each test compound solution−average value of IL-2 or IL-4 production amount of negative control group)/(average value of IL-2 or IL-4 production amount of positive control group−average value of IL-2 or IL-4 production amount of negative control group)}(%) (Test Result and Consideration)

Chain of Recombinant human GR (P04150 whole entry): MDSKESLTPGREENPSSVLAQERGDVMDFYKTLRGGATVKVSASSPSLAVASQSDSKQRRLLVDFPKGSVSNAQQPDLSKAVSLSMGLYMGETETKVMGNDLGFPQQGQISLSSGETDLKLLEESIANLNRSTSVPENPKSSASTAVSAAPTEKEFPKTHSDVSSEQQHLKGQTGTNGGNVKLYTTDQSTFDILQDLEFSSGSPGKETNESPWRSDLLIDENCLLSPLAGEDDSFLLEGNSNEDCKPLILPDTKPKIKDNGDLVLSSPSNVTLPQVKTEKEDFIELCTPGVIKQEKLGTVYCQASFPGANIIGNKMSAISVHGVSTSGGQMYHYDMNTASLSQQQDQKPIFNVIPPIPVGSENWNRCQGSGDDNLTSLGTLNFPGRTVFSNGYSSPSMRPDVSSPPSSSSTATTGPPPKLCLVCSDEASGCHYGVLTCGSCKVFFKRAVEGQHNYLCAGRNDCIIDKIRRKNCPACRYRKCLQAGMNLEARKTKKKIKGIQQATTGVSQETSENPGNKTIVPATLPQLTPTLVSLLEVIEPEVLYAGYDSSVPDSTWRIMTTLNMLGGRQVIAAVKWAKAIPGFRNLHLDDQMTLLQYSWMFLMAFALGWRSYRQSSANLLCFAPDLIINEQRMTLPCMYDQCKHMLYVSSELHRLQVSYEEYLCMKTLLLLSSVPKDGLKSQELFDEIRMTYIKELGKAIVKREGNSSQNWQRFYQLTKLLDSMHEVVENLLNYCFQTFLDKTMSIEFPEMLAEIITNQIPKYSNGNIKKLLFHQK

Structure (SMILES) | inhibition at 10 µM (Recombinant human GR) [%] | inhibition at 1 µM [1] [%]
COc1cc(OC[C@@H](O)CC#N)ccc1-c1ccc2c(c1COc1cc(F)ccc1C)N(C)C(=O)C(C)(C)N2 [Compound 5-2, (S)-7-[4-(3-cyano-2-hydroxypropyl)oxy-2-methoxyphenyl]-8-(5-fluoro-2-methyl-phenoxymethyl)-1,3,3-trimethyl-3,4-dihydro-1H-quinoxalin-2-one] | > 99 | –
COc1ccc(CO)cc1-c1ccc2c(c1COc1cc(F)ccc1C)N(C)C(=O)C(C)(C)N2 [Control compound B, 8-(5-fluoro-2-methylphenoxymethyl)-7-(5-hydroxymethyl-2-methoxyphenyl)-1,3,3-trimethyl-3,4-dihydro-1H-quinoxalin-2-one, reference compound] | > 99 | 35
COCOc1ccc(-c2ccc3c(c2COc2cc(F)ccc2C)N(C)C(=O)C(C)(C)N3)c(OC)c1 [Control compound F, 8-(5-fluoro-2-methylphenoxymethyl)-7-(2-methoxy-4-methoxymethoxyphenyl)-1,3,3-trimethyl-3,4-dihydro-1H-quinoxalin-2-one, reference compound] | 94 | < 0
COc1ccc(O)cc1-c1ccc2c(c1COc1cc(F)ccc1C)N(C)C(=O)C(C)(C)N2 [Control compound C, 8-(5-fluoro-2-methylphenoxymethyl)-7-(5-hydroxy-2-methoxyphenyl)-1,3,3-trimethyl-3,4-dihydro-1H-quinoxalin-2-one] | > 99 | 26
COc1cc(OC[C@H](C)OC(=O)CN(C)C)ccc1-c1ccc2c(c1COc1cc(F)ccc1C)N(C)C(=O)C(C)(C)N2 [Compound 11-1, (S)-7-[4-[2-(N,N-dimethylaminoacetoxy)propyl]oxy-2-methoxyphenyl]-8-(5-fluoro-2-methylphenoxymethyl)-1,3,3-trimethyl-3,4-dihydro-1H-quinoxalin-2-one] | 99 | 72
CCCC(=O)Oc1ccc(-c2ccc3c(c2COc2cc(F)ccc2C)N(C)C(=O)C(C)(C)N3)c(OC)c1 [Control compound D, 7-(4-butyryloxy-2-methoxyphenyl)-8-(5-fluoro-2-methylphenoxymethyl)-1,3,3-trimethyl-3,4-dihydro-1H-quinoxalin-2-one, reference compound] | 98 | < 0
COc1cc(OC[C@@H](O)CCO)ccc1-c1ccc2c(c1COc1cc(F)ccc1C)N(C)C(=O)C(C)(C)N2 [Compound 2-1, (S)-7-[4-(2,4-dihydroxybutyl)oxy-2-methoxyphenyl]-8-(5-fluoro-2-methyl-phenoxymethyl)-1,3,3-trimethyl-3,4-dihydro-1H-quinoxalin-2-one] | > 99 | 79
COc1cc(OC[C@H](C)O)ccc1-c1ccc2c(c1COc1cc(F)ccc1C)N(C)C(=O)C(C)(C)N2 [Compound 1-1, (S)-8-(5-fluoro-2-methylphenoxymethyl)-7-[4-(2-hydroxypropyl)oxy-2-methoxy-phenyl]-1,3,3-trimethyl-3,4-dihydro-1H-quinoxalin-2-one] | > 99 | 73
COc1ccc(-c2ccc3c(c2COc2cc(F)ccc2C)N(C)C(=O)C(C)(C)N3)c(OC)c1 [Control compound E, 7-(2,4-dimethoxyphenyl)-8-(5-fluoro-2-methyl-phenoxymethyl)-1,3,3-trimethyl-3,4-dihydro-1H-quinoxalin-2-one, reference compound] | 98 | < 0
